Laboratory results: US20220000817A1, “PROGNOSIS AND TREATMENT OF METASTATIC CANCER” (Academia Sinica, priority 2018, published 2022)
Where a SMILES comes first, the peptide text is derived from it. The star is where a group is joined. Cbz = O=C(OCc1ccccc1)*

Tests used:
EFHD2 [1] = experiment: Western blot of EFHD2 expression in cancer cells; assay type: cell-based, human; settings: H1299 and F4 cells
Procedure: Cell lines and cell culture. Human lung adenocarcinoma cells A549 and H1299 were obtained from the American Type Culture Collection (ATCC, Maryland, USA). Human lung adenocarcinoma cell lines CL1-0 were from National Taiwan University Hospital, Taipei, Taiwan. Cell line CL1-5-F4 (F4) was established by selection of increasingly invasive cell populations from CL1-0 in according to procedures described by Chu Y W et al (Am J Respir Cell Mol Biol (1997) 17:353-360). H1299 and F4 cells were cultured in DMEM/F-12 media (Invitrogen). A549 and CL1-0 cells were maintained in RPMI 1640 media (Invitrogen). All culture media were supplemented with 10% fetal bovine serum and 1% antibiotics (GIBCO). All cells were grown in a humidified atmosphere of 5% CO2 and 95% air at 37° C. Western blot analysis. Proteins were separated using 10% or 12.5% SDS-PAGE and transferred onto a PVDF membrane via electroblotting at […] at 4° C. for 3 hr in 25 mmol/L Tris-HCl, 197 mmol/L glycine, and 13.3% (v/v) methanol. Then, 5% (w/v) skim milk in TBST was used for the blocking reaction, and the primary antibodies were incubated at room temperature overnight. After TBST washes, horseradish peroxidase-conjugated secondary antibodies were further incubated at room temperature for 1 hr. […] The primary antibodies used in this study included EFHD2 (ab106667; abcam), E-cadherin (#5296; Cell Signaling), vimentin (#3932; Cell Signaling), CAV1 (#3238; Cell Signaling), and β-actin (ab8226; abeam). […] Results are illustrated in FIG. 4.

F4 cells = experiment: Sensitization of F4 cells to cisplatin by 2-APAs; assay type: cell-based, human; settings: F4 cells pre-treated with 20 μM 2-APA, data not shown
Excerpt: In this example, the effect of 2-APAs (e.g., ibuprofen, flurbiprofen, naproxen and ketoprofen) and cisplatin on F4 cells were investigated.

H1299 cells [2] = experiment: MTT cell survival, H1299 shGFP / shEFHD2 cells; assay type: cell-based, human
Procedure: MTT assay was used to determine cell survival ratio in the control cells (H1299^shGFP) or cells having the expression of EFHD2 being knock-out via interference RNA (H1299^shEFHD2) with or without the treatment of ibuprofen and/or cisplatin.
(§1) MTT assay. […] The absorbance of the solution at 570 nm was measured by spectrophotometer.
In this example, the mechanism of ibuprofen and its combination with a chemotherapeutic drug (i.e., cisplatin) were investigated via comparing their actions on the survival of H1299 cells in the presence or absence of EFHD2. To this purpose, H1299 cells were pre-treated with the present shRNA (i.e., H1299^shEFHD2) to knockdown the expression of EFHD2 in H1299 cells in accordance with procedures described in Example 1; and the control cells were pre-treated with shGFP. Results are depicted in FIG. 7.

H1299 cells [3] = experiment: H1299 xenograft mouse model, tumor size; assay type: in vivo, BALB/c nude mice; settings: cisplatin 5 mg/Kg injection once per week for 3 weeks; ibuprofen 25 mg/Kg orally; alone or in combination
Excerpt: Animals. All procedures (2017-305) involving animal research were approved by the Institutional Animal Care and Use Committee (IACUC) at Chinese Medical University Hospital (CMUH) (Taichung, Taiwan). 5-week-old male BALB/c nude mice (18 to 25 g) were obtained from the National Laboratory Animal Center (Taipei, Taiwan). Mice were maintained in an environment under a 12: 12 hr light/dark cycle with access to food and water ad libitum.
BALB/c nude mice were orthotropically xenografted with H1299 cells (1×10^6 cells) by stereotactic injection in the back. Mouse tumor progression (including growth and metastasis) was measured by IVIS weekly until week 7.
In this example, in vivo effect of the combined treatment of ibuprofen and cisplatin was investigated via the xenograft mouse model established in accordance with the procedures described in the “Materials and methods” section. For treatment purpose, mice were treated with cisplatin (5 mg/Kg, via injection, once per week for 3 weeks) and ibuprofen (25 mg/Kg, orally fed, on the day when cisplatin was injected, and 1 day prior to, and 1 day after the cisplatin injection), alone or in combination. Mice were then sacrificed and the tumors were isolated and further analyzed. Results are depicted in FIG. 9.

EFHD2 [4] = experiment: Ibuprofen-induced EFHD2 degradation with proteasome/lysosome inhibitors, western blot; assay type: cell-based, human; settings: for effect on ibuprofen-induced EFHD2 degradation: H1299 cells pretreated 0.5 hr, then 600 μM ibuprofen
Procedure: FIG. 6. Ibuprofen activates both proteasomal and lysosomal degradation of EFHD2. H1299 cells were pretreated with MG132 and/or Baf-A1 for 0.5 hr, then followed by the treatment of 600 μM ibuprofen for the indicated time. EFHD2 expression was determined by western blot assay.
Western blot analysis. Proteins were separated using 10% or 12.5% SDS-PAGE and transferred onto a PVDF membrane via electroblotting at 400V at 4° C. for 3 hr in 25 mmol/L Tris-HCl, 197 mmol/L glycine, and 13.3% (v/v) methanol. Then, 5% (w/v) skim milk in TBST was used for the blocking reaction, and the primary antibodies were incubated at room temperature overnight. After TBST washes, horseradish peroxidase-conjugated secondary antibodies were further incubated at room temperature for 1 hr. […] The primary antibodies used in this study included EFHD2 (ab106667; abcam), E-cadherin (#5296; Cell Signaling), vimentin (#3932; Cell Signaling), CAV1 (#3238; Cell Signaling), and β-actin (ab8226; abeam).
As ubiquitin-proteasome pathway and autophagy-lysosome pathway are two major systems responsible for cellular protein degradation, we then investigated whether any of the two systems has involved in ibuprofen-mediated EFHD2 degradation.

H1299 and F4 cells = experiment: Migration and invasion by matrigel transwell system; assay type: cell-based, human
Procedure: FIG. 5 Ibuprofen reduced EFHD2 expression in cancer cells. (A) The effect of various doses of ibuprofen on EFHD2 in H1299 and F4 cells were respectively determined by Western blot assay; (B) The effects of ibuprofen on the invasion and migration ability of H1299 and F4 cells were analyzed by matrigel transwell system. Wound healing assay. The in vitro migration assay was performed using a Culture-Insert well (ibidi GmbH, German/v). Cancer cells (4.5×10^4 cells) were cultured in suitable media in the device for 24 hr. After removal of the Culture-Insert, cancer cells were cultured for an additional 8 hr. The migration distance of cancer cells was recorded, and the migration area was measured using ImageJ software. Matrigel invasion assay. For in vitro invasion assay, cancer cells (1.5×10^5 cells in 200 μL) were suspended in the upper half of a PET membrane transwell insert chamber (BD Biosciences), which was coated with Matrigel (1 mg/mL; BD Biosciences), on a 24-well plate. Medium supplemented with 10% FBS was added as a chemoattractant to the lower half After incubation at 37° C. for 24 hr, cancer cells that passed through the insert were fixed with 3.7% formalin (Sigma-Aldrich) and stained with 0.1% crystal violet (Sigma-Aldrich).

EFHD2 mRNA = experiment: qPCR of EFHD2 mRNA levels with or without ibuprofen; assay type: cell-based, human; settings: data not shown
A549 cells = experiment: MTT cell survival, A549 pcDNA / pEFHD2 cells; assay type: cell-based, human
Procedure: FIG. 8 Susceptibility of cancer cells lacking endogenous EFHD2 to chemotherapeutic drug is not enhanced by ibuprofen. MTT assay was used to determine cell survival ratio in the control cells (A549^pcDNA) or cells transfecting with vectors that carrying exogenous EFHD2 gene (A549^pEFHD2) with or without the treatment of ibuprofen and/or cisplatin.
as §1
In this example, instead of knocking down the endogenous EFHD2 expression via interference RNA, human lung adenocarcinoma cells A549 having low level of endogenous EFHD2 were used to further elucidate the action of ibuprofen (i.e., enhancing the susceptibility of cancer cells to chemotherapeutic drugs). Results are illustrated in FIG. 8.

Structure (SMILES)	expression of EFHD2 (EFHD2 [1])	sensitivity to subsequent cisplatin treatment (cell death) (F4 cells)	also measured
Cc1cccc(Nc2ccccc2C(=O)O)c1C [mefenamic acid]	possessed no such effect		
CC(C(=O)O)c1cccc(C(=O)c2ccccc2)c1 (stereo not shown) [ketoprofen]	effective in suppressing the expression of EFHD2	more sensitive to the subsequent treatment of cisplatin	
COc1ccc2cc([C@H](C)C(=O)O)ccc2c1 [naproxen]	effective in suppressing the expression of EFHD2	more sensitive to the subsequent treatment of cisplatin	
O=C(c1ccccc1)c1ccc2n1CCC2C(=O)O (stereo not shown) [ketorolac]	possessed no such effect		
N.N.[Cl][Pt][Cl] [cisplatin]			survival ratio (H1299 cells [2]; H1299^shGFP and H1299^shEFHD2 cells, cisplatin alone, MTT 24 hours): decreased with an increase in the concentration of cisplatin; size of the tumor (H1299 cells [3]): significantly reduce the size of the tumor
O=C(O)Cc1ccccc1Nc1c(Cl)cccc1Cl [diclofenac]	possessed no such effect		
CC1=C(CC(=O)O)c2cc(F)ccc2/C1=C\c1ccc([S+](C)[O-])cc1 (stereo not shown) [sulindac]	possessed no such effect		
CN1C(C(=O)Nc2ccccn2)=C(O)c2ccccc2S1(=O)=O [piroxicam]	possessed no such effect		
CC(C)Cc1ccc(C(C)C(=O)O)cc1 (stereo not shown) [ibuprofen]	effective in suppressing the expression of EFHD2	more sensitive to the subsequent treatment of cisplatin	level of EFHD2 (EFHD2 [1]; various doses of ibuprofen): reduce the level of EFHD2 in a dose-dependent manner; mechanism of EFHD2 degradation (EFHD2 [4]; H1299 cells, 600 μM ibuprofen): both proteasomal- and lysosomal-dependent mechanism; survival ratio, combination with cisplatin (H1299 cells [2]; H1299^shEFHD2 cells vs H1299^shGFP+ibuprofen): comparable to the control cells subjecting to the same treatment; survival ratio, combination with cisplatin (H1299 cells [2]; H1299^shGFP cells, ibuprofen (600 and cisplatin (1, 2, 5, 10 or 20 μM))): lower than those treated with cisplatin alone; invasion ability (H1299 and F4 cells): attenuated; migration ability (H1299 and F4 cells): attenuated; size of the tumor (H1299 cells [3]): more effective than cisplatin; EFHD2 mRNA levels (EFHD2 mRNA): did not influence EFHD2 mRNA levels; susceptibility to cisplatin treatment (A549 cells; A549^pEFHD2 vs A549^pEFHD2+ibuprofen): failed to increase their susceptibilities to cisplatin; susceptibility to cisplatin treatment (A549 cells; A549^pcDNA vs A549^pcDNA+ibuprofen): no enhanced susceptibility
CC(C)C[C@@H](C=O)NC(=O)[C@H](CC(C)C)NC(=O)[C@H](CC(C)C)NC(=O)OCc1ccccc1 [MG132] (Cbz-Leu-Leu-Leu-aldehyde)			effect on ibuprofen-induced EFHD2 degradation (EFHD2 [4]): incapable of reducing ibuprofen-induced EFHD2 degradation
CC(=O)Oc1ccccc1C(=O)O [aspirin]	possessed no such effect		
CC(C(=O)O)c1ccc(-c2ccccc2)c(F)c1 (stereo not shown) [flurbiprofen]	effective in suppressing the expression of EFHD2	more sensitive to the subsequent treatment of cisplatin	
CO/C1=C\C(C)=C\[C@@H](C)[C@@H](O)[C@@H](C)C/C(C)=C/C=C/[C@H](OC)[C@@H]([C@@H](C)[C@@H](O)[C@H](C)[C@@]2(O)C[C@@H](O)[C@H](C)[C@@H](C(C)C)O2)OC1=O [Baf-A1, bafilomycin A1]			effect on ibuprofen-induced EFHD2 degradation (EFHD2 [4]): incapable of reducing ibuprofen-induced EFHD2 degradation
